Key:
[1] = target: T1, recombinant human Cox-2 (r-hu Cox-2) (Homo sapiens, UniProt P35354); experiment: Recombinant human PGHS-2 enzyme assay (RHUCX2); type: biochemical; conditions: for IC50: read-out: RHUCX2 IC50 (parenthetical value)
T1 construct: made in house; host or cells: baculovirus/Sf9 insect cells (microsomes)
T1 sequence (P35354 18-604): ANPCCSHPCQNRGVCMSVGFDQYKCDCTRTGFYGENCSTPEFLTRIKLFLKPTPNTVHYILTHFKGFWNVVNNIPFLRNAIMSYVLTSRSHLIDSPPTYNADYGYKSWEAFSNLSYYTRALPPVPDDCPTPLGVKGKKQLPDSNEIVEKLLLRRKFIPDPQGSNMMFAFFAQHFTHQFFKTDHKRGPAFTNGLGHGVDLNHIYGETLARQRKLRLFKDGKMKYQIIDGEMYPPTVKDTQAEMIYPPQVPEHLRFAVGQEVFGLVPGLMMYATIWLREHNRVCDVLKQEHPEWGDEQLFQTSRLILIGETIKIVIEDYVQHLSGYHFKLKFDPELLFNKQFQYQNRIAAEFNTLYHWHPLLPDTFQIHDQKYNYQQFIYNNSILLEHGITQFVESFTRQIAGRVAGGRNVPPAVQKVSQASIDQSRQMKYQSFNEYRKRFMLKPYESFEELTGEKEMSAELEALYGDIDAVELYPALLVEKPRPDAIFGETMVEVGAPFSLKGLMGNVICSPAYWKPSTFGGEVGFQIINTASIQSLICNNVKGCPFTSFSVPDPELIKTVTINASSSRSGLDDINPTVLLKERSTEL
Method: (§1) To compare the mean responses of the treatment groups, analysis of variance was applied. Percent inhibition values were determined by comparing the individual treatment mean values to the mean of the control group. Linear regression was used to estimate IC50's/ED50's in appropriate assays.
(§2) EIA reagents for prostaglandin determination were purchased from Perseptive Diagnostics, (Cambridge, Mass.). Prostaglandin E2 (PGE2) levels in lavage fluids were determined after the samples were dried under nitrogen and reconstituted with assay buffer. PGE2 levels in enzyme assays or cell culture media were measured against standards prepared in the same milieu. The immunoassays were conducted as recommended by the manufacturer. The EIA was conducted in 96 well microtiter plates (Nunc Roskilde, Denmark) and optical density was measured using a microplate reader (Vmax, Molecular Devices Corp., Menlo Park, Calif.).
(§3) Inhibition of prostaglandin biosynthesis in vitro was evaluated using recombinant human Cox-1 (r-hu Cox1) and Cox-2 (r-hu Cox-2) enzyme assays. […] The reaction was allowed to run for 2.5 minutes at room temperature prior to quenching with HCl and neutralization with NaOH. PGE2 production in the presence and absence of the drug was determined by EIA analysis. The EIA was conducted in 96 well microtiter plates (Nunc Roskilde, Denmark) and optical density was measured using a microplate reader (Vmax, Molecular Devices Corp., Menlo Park, Calif.). EIA reagents for prostaglandin determination were purchased from Perseptive Diagnostics (Cambridge, Mass.). PGE2 levels were measured against standards prepared in the same milieu. The immunoassays were conducted as recommended by the manufacturer.

[2] = target: T2, recombinant human Cox-1 (r-hu Cox1) (Homo sapiens, UniProt P23219); experiment: Recombinant human PGHS-1 enzyme assay (RHUCX1); type: biochemical; conditions: for inhibition at 100 µM / inhibition at 10 µM / inhibition at 1 µM: read-out: RHUCX1 % Inh. at Dose
T2 construct: made in house; host or cells: baculovirus/Sf9 insect cells (microsomes)
Method: as §1, §2, §3

[3] = 0.01 μM, read-out: RHUCX2 % Inh. at Dose
[4] = 0.1 μM, read-out: RHUCX2 % Inh. at Dose
[5] = 1 μM, read-out: RHUCX2 % Inh. at Dose

T2 sequence (P23219 24-599): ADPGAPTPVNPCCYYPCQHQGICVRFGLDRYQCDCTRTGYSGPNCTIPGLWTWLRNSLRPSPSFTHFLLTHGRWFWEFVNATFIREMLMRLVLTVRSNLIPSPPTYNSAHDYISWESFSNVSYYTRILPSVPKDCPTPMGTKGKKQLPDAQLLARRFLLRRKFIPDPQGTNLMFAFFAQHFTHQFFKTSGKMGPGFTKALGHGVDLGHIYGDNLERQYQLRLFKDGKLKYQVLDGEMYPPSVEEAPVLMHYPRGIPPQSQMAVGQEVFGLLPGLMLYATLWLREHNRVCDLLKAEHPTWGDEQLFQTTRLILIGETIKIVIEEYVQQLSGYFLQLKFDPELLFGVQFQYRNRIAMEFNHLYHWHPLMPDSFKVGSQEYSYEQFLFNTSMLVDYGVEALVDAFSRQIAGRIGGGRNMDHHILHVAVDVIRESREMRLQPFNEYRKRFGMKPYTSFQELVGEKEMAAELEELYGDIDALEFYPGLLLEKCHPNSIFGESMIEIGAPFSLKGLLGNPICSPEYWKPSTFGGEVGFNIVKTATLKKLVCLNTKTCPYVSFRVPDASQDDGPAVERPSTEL

SMILES | melting point [°C] | inhibition at 100 µM ([2]; 100 μM) [%] | inhibition at 0.1 µM [1, 4] [%] | inhibition at 1 µM [1, 5] [%] | IC50 [1] [nM] | inhibition at 10 µM [2] [%] | also measured
CS(=O)(=O)c1ccc(-c2cnn(Cc3ccc(F)cc3F)c(=O)c2-c2ccc(F)cc2)cc1 [Example 22, 2-(2,4-Difluorobenzyl)-4-(4-fluorophenyl)-5-[4-(methylsulfonyl)phenyl]-3(2H)-pyridazinone] | 179 to 182 | 25 |  |  |  |  | inhibition at 0.01 µM [1, 3]: 35%; inhibition at 0.03 µM ([1]; 0.03 μM, read-out: RHUCX2 % Inh. at Dose): 91%
CS(=O)(=O)c1ccc(-c2cnn(Cc3ccccc3C(F)(F)F)c(=O)c2-c2ccc(F)cc2)cc1 [Example 25, 2-(2-Trifluoromethylbenzyl)-4-(4-fluorophenyl)-5-[4-(methylsulfonyl)phenyl]-3(2H)-pyridazinone] | 87 to 90 | 1 | 66 | 93 |  |  | 
CS(=O)(=O)c1ccc(-c2cnn(CC3CC3)c(=O)c2-c2ccc(F)cc2)cc1 [Example 26, 2-(Cyclopropylmethyl)-4-(4-fluorophenyl)-5-[4-(methylsulfonyl)phenyl]-3(2H)-pyridazinone] | 118 to 121 | 10 | 44 | 91 |  |  | inhibition at 0.01 µM [1, 3]: 44%
CS(=O)(=O)c1ccc(-c2cnn(CC=C(Cl)Cl)c(=O)c2-c2ccc(F)cc2)cc1 [Example 35] | 150 to 152 |  |  |  | 17 | 34 | 
CS(=O)(=O)c1ccc(-c2cnn(CC=Cc3ccccc3)c(=O)c2-c2ccc(F)cc2)cc1 [Example 36, 2-(3-Phenyl-2-propenyl)-4-(4-fluorophenyl)-5-[4-(methylsulfonyl)phenyl]-3(2H)-pyridazinone] | 165 to 167 |  |  |  | 570 | 21 | 
CS(=O)(=O)c1ccc(-c2cnn(Cc3ncc(Cl)s3)c(=O)c2-c2ccc(F)cc2)cc1 [Example 39, 2-(5-Chlorothiazol-2-ylmethyl)-4-(4-fluorophenyl)-5-[4-(methylsulfonyl)phenyl]-3(2H)-pyridazinone] | 185 to 186 | 0 |  |  | 440 |  | 
CS(=O)(=O)c1ccc(-c2cnn(C=C(F)C(F)(F)C(F)(F)F)c(=O)c2-c2ccc(F)cc2)cc1 [Example 40, 2-(2,3,3,4,4,4-Hexafluorobuten-1-yl)-4-(4-fluorophenyl)-5-[4-(methylsulfonyl)phenyl]-3(2H)-pyridazinone] | 167 to 169 |  | 89 | 97 |  | 76 | inhibition at 1 µM [2]: 69%
CS(=O)(=O)c1ccc(-c2cnn(Cc3c(F)c(F)c(F)c(F)c3F)c(=O)c2-c2ccc(F)cc2)cc1 [Example 45, 2-(2,3,4,5,6-Pentafluorobenzyl)-4-(4-fluorophenyl)-5-[4-(methylsulfonyl)phenyl]-3(2H)-pyridazinone] | 115 to 116 | 5 | 63 | 85 |  |  | 
CC(c1ccc(F)cc1)n1ncc(-c2ccc(S(C)(=O)=O)cc2)c(-c2ccc(F)cc2)c1=O (stereo not drawn) [Example 50, 2-(α-Methyl-4-fluorobenzyl)-4-(4-fluorophenyl)-5-[4-(methylsulfonyl)phenyl]-3(2H)-pyridazinone] | 162 to 164 | 23 | 59 | 99 |  |  | 
CS(=O)(=O)c1ccc(-c2cnn(Cc3ccccc3)c(=O)c2-c2ccc(F)c(Cl)c2)cc1 [Example 52, 2-Benzyl-4-(3-chloro-4-fluorophenyl)-5-[4-(methylsulfonyl)phenyl]-3(2H)-pyridazinone] | 134 to 136 |  | 83 | 99 |  | 32 | 
CS(=O)(=O)c1ccc(-c2cnn(CC(F)(F)F)c(=O)c2-c2ccc(Cl)c(Cl)c2)cc1 [Example 81, 2-(2,2,2-Trifluoroethyl)-4-(3,4-dichlorophenyl)-5-[4-(methylsulfonyl)phenyl]-3(2H)-pyridazinone] | 197 to 198 | 6 | 44 | 97 |  |  | 
CSc1cccc(-n2ncc(-c3ccc(S(C)(=O)=O)cc3)c(-c3ccc(F)cc3)c2=O)c1 [Example 97, 2-[3-(Methylthio)phenyl]-4-(4-fluorophenyl)-5-[4-(methylsulfonyl)phenyl]-3(2H)-pyridazinone] | 196 | 35 |  |  | 332 |  | 
CS(=O)(=O)c1ccc(-c2cnn(-c3cc(F)cc(F)c3)c(=O)c2Oc2ccc(F)cc2)cc1 [Example 111, 2-(3,5-Difluorophenyl)-4-(4-fluorophenoxy)-5-[4-(methylsulfonyl)phenyl]-3(2H)-pyridazinone] | 209 to 211 | 13 |  |  | 52 |  | 
CS(=O)(=O)c1ccc(-c2cnn(C3CCC3)c(=O)c2-c2ccc(F)cc2)cc1 [Example 122, 2-Cyclobutyl-4-(4-fluorophenyl)-5-[4-(methylsulfonyl)phenyl]-3(2H)-pyridazinone] | 202 to 203 | 1 |  |  | 285 |  | 
NS(=O)(=O)c1ccc(-c2cnn(Cc3ccc(F)cc3F)c(=O)c2-c2ccc(F)cc2)cc1 [Example 124, 2-(2,4-Difluorobenzl)-4-(4-fluorolphenyl)-5-[4-(aminosulfonyl)phenyl]-3(2H)-pyridazinone] | 236 to 238 | 26 |  |  | 44 |  | 
NS(=O)(=O)c1ccc(-c2cnn(Cc3ccc(F)c(F)c3)c(=O)c2-c2ccc(F)cc2)cc1 [Example 127, 2-(3,4-Difluorobenzyl)-4-(4-fluorophenyl)-5-[4-(aminosulfonyl)phenyl]-3(2H)-pyridazinone] | 253 to 255 |  | 51 | 74 |  | 50 | inhibition at 1 µM [2]: 30%
CS(=O)(=O)c1ccc(-c2cnn(C3Cc4ccccc4C3)c(=O)c2-c2ccc(F)cc2)cc1 [Example 128, 2-(2,3-Dihydro-1H-inden-2-yl)-4-(4-fluorophenl)-5-[4-(methylsulfonyl)phenyl]-3(2H)-pyridazinone] | 97 to 100 | 14 |  |  | 477 |  | 
CC1(n2ncc(-c3ccc(S(C)(=O)=O)cc3)c(-c3ccc(F)cc3)c2=O)CCCC1 [Example 134] | 107 to 110 | 54 |  |  | 53 | 35 | 
CC(c1cccc(F)c1)n1ncc(-c2ccc(S(N)(=O)=O)cc2)c(-c2ccc(F)cc2)c1=O (stereo not drawn) [Example 144, 2-(α-Methyl-3-fluorobenzyl)-4-(4-fluorophenyl)-5-[4-(aminosulfonyl)phenyl]-3(2H)-pyridazinone] | 192 to 194 |  | 78 | 88 |  |  | inhibition at 0.01 µM [1, 3]: 65%; IC50 ([2]; read-out: RHUCX1 IC50 (parenthetical value)): 58 nM
CC(C)=CCCOc1c(-c2ccc(S(C)(=O)=O)cc2)cnn(-c2ccc(F)cc2)c1=O [Example 424] |  |  |  |  |  |  | RHUCX2 % Inh. at Dose (μM) ([1]; 0.01 μM): 33 @ 0.01%; RHUCX2 % Inh. at Dose (μM) ([1]; 0.1 μM): 58 @ 0.1%; RHUCX2 % Inh. at Dose (μM) ([1]; 1 μM): 75 @ 1%; RHUCX1 % Inh. at Dose (μM) ([2]; 100 μM): 7 @ 100%
